In patent US20240092782A1, “TRICYCLIC PESTICIDAL COMPOUNDS” (BASF SE, priority 2021, published 2024):

Experiments:
Format in all cases: in vivo
[1] = system: tobacco budworm (Heliothis virescens); test: whole plant or invertebrate; conditions: 120 h, egg and larval mortality after 5 days, read-out: mortality in comparison with untreated controls
Protocol: Tobacco Budworm (Heliothis virescens)
(§1) For evaluating control of tobacco budworm (Heliothis virescens) the test unit consisted of 96-well-microtiter plates containing an insect diet and 15-25 H. virescens eggs. The compounds were formulated using a solution containing 75% v/v water and 25% v/v DMSO. Different concentrations of formulated compounds were sprayed onto the insect diet at 10 μl, using a custom built micro atomizer, at two replications. After application, microtiter plates were incubated at about 28±1° C. and about 80±5% relative humidity for 5 days. Egg and larval mortality was then visually assessed.

[2] = system: boll weevil (Anthonomus grandis); test: Boll weevil (Anthonomus grandis) egg and larval mortality, insect diet microtiter plate; conditions: 120 h, egg and larval mortality after 5 days, read-out: mortality in comparison with untreated controls
Protocol: Boll Weevil (Anthonomus grandis)
as §1, with “boll weevil (Anthonomus grandis)” for “tobacco budworm (Heliothis virescens)”, “5-10 A. grandis” for “15-25 H. virescens”, “5” for “10”, “25±1°” for “28±1°”, “75±5%” for “80±5%”

[3] = system: yellow fever mosquito (Aedes aegypti); test: whole plant or invertebrate; conditions: 48 h, larval mortality after 2 days, read-out: mortality in comparison with untreated controls
Protocol: Yellow Fever Mosquito (Aedes aegypti)
For evaluating control of yellow fever mosquito (Aedes aegypti) the test unit consisted of 96-well-microtiter plates containing 200 μl of tap water per well and 5-15 freshly hatched A. aegypti larvae. The active compounds were formulated using a solution containing 75% (v/v) water and 25% (v/v) DMSO. Different concentrations of formulated compounds or mixtures were sprayed onto the insect diet at 2.5 μl, using a custom built micro atomizer, at two replications. After application, microtiter plates were incubated at 28+1° C., 80+5% RH for 2 days. Larval mortality was then visually assessed.

[4] = system: Green Peach Aphid (Myzus persicae); test: whole plant or invertebrate; conditions: 120 h, aphid mortality after 5 days, read-out: mortality in comparison with untreated controls
Protocol: Green Peach Aphid (Myzus persicae)
The 10,000 ppm solution was serially diluted in 100% cyclohexanone to make interim solutions. These served as stock solutions for which final dilutions were made by the Tecan in 50% acetone:50% water (v/v) into 10 or 20 ml glass vials. A nonionic surfactant (Kinetic®) was included in the solution at a volume of 0.01% (v/v). The vials were then inserted into an automated electrostatic sprayer equipped with an atomizing nozzle for application to plants/insects. Bell pepper plants at the first true-leaf stage were infested prior to treatment by placing heavily infested leaves from the main colony on top of the treatment plants. Aphids were allowed to transfer overnight to accomplish an infestation of 30-50 aphids per plant and the host leaves were removed. The infested plants were then sprayed by an automated electrostatic plant sprayer equipped with an atomizing spray nozzle. The plants were dried in the sprayer fume hood, removed, and then maintained in a growth room under fluorescent lighting in a 14:10 light:dark photoperiod at about 25° C. and about 20-40% relative humidity. Aphid mortality on the treated plants, relative to mortality on untreated control plants, was determined after 5 days.

[5] = system: Red Spider Mite (Tetranychus kanzawai); test: Red spider mite (Tetranychus kanzawai) mortality on sprayed cowpea beans; conditions: 72 hours after treatment, read-out: mortality in comparison with untreated controls
Protocol: Red Spider Mite (Tetranychus kanzawai)
The active compound of formula ( ))s dissolved at the desired concentration in a mixture of 1:1 (vol:vol) distilled water:acetone. Add surfactant (Kinetic) is added at a rate of 0.01% (vol/vol).The test solution is prepared at the day of use. Potted cowpea beans of 4-5 days of age are cleaned with tap water and sprayed with 1-2 ml of the test solution using air driven DeVilbiss® hand atomizer at 20-30 psi (≈1.38 to 2.07 bar). The treated plants are allowed to air dry and afterwards inoculated with 30 or more mites by clipping a cassava leaf section from rearing population. Treated plants are placed inside a holding room at about 25-26° C. and about 65-70% relative humidity. Estimate percent mortality is assessed 72 hours after treatment.

CCS(=O)(=O)c1cc(Br)ccc1-c1nc2cc(C(F)(F)F)n3ncnc3c2n1C [I.8, 11-(4-bromo-2-ethylsulfonyl-phenyl)-12-methyl-7-(trifluoromethyl)-3,5,6,10,12-pentazatricyclo[7.3.0.02,6]dodeca-1(9),2,4,7,10-pentaene]
> 70%: mortality at 800 ppm ([1]; 800 ppm) | mortality at 800 ppm [2] | mortality at 800 ppm ([3]; 800 ppm) | mortality at 800 ppm ([4]; 800 ppm) | mortality at 800 ppm [5]

CCS(=O)(=O)c1cc(Br)cnc1-c1nc2cc(C(F)(F)F)n3ncnc3c2n1C [I.2, 8-(5-bromo-3-(ethylsulfonyl)pyridin-2-yl)-9-methyl-5-(trifluoromethyl)-9H-imidazo[4,5-c][1,2,4]triazolo[1,5-a]pyridine]
> 70%: mortality at 10 ppm ([1]; 10 ppm) | mortality at 30 ppm ([2]; 30 ppm) | mortality at 10 ppm ([3]; 10 ppm) | mortality at 10 ppm ([4]; 10 ppm) | mortality at 10 ppm ([5]; 10 ppm)

CCS(=O)(=O)c1cc(N=S(C)(C)=O)cnc1-c1cn2c(cc(C(F)(F)F)n3ccnc32)n1 [I.24, [5-ethylsulfonyl-6-[7-(trifluoromethyl)-1,3,6,10-tetrazatricyclo[7.3.0.02,6]dodeca-2,4,7,9,11-pentaen-11-yl]-3-pyridyl]imino-dimethyl-oxo-λ6-sulfane]
> 70%: mortality at 800 ppm [2] | mortality at 800 ppm [5]
